Laboratory results as given in ChEMBL document CHEMBL1909046, “DrugMatrix in vitro pharmacology data”.

Experiments:
[1] = molecular target: T1, Calcitonin receptor (Homo sapiens, UniProt P30988); format: cell membranes, Membrane; conditions: t47d; also: in other assays of this panel Not Active means under 50% inhibition at 10 µM
T1 sequence (P30988 whole entry): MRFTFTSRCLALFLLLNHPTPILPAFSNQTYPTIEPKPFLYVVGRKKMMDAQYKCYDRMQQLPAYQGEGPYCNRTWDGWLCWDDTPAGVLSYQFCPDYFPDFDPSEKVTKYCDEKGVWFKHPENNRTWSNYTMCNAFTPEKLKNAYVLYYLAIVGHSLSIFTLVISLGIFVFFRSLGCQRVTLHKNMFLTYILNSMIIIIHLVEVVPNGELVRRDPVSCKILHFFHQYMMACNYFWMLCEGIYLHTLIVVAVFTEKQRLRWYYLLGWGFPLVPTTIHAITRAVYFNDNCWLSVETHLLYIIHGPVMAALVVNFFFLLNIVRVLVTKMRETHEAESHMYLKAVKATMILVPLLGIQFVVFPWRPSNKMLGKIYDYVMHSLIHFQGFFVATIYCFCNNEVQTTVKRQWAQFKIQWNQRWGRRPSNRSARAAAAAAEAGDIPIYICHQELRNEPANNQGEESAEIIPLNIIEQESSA

[2] = DRUGMATRIX: Tumor Necrosis Factor (TNF), Non-Selective radioligand binding (ligand: [125I] TNF-alpha); format: cell membranes, Membrane; conditions: u-937; Not Active = under 50% inhibition at 10 µM
[3] = molecular target: T2, Receptor-type tyrosine-protein phosphatase C (Homo sapiens, UniProt P08575); design: species or system Escherichia coli;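 also: inhibition of CD45 enzyme activity measured using DiFMUP as substrate; in other assays of this panel Not Active means under 50% inhibition at 10 µM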
T2 sequence (P08575 whole entry): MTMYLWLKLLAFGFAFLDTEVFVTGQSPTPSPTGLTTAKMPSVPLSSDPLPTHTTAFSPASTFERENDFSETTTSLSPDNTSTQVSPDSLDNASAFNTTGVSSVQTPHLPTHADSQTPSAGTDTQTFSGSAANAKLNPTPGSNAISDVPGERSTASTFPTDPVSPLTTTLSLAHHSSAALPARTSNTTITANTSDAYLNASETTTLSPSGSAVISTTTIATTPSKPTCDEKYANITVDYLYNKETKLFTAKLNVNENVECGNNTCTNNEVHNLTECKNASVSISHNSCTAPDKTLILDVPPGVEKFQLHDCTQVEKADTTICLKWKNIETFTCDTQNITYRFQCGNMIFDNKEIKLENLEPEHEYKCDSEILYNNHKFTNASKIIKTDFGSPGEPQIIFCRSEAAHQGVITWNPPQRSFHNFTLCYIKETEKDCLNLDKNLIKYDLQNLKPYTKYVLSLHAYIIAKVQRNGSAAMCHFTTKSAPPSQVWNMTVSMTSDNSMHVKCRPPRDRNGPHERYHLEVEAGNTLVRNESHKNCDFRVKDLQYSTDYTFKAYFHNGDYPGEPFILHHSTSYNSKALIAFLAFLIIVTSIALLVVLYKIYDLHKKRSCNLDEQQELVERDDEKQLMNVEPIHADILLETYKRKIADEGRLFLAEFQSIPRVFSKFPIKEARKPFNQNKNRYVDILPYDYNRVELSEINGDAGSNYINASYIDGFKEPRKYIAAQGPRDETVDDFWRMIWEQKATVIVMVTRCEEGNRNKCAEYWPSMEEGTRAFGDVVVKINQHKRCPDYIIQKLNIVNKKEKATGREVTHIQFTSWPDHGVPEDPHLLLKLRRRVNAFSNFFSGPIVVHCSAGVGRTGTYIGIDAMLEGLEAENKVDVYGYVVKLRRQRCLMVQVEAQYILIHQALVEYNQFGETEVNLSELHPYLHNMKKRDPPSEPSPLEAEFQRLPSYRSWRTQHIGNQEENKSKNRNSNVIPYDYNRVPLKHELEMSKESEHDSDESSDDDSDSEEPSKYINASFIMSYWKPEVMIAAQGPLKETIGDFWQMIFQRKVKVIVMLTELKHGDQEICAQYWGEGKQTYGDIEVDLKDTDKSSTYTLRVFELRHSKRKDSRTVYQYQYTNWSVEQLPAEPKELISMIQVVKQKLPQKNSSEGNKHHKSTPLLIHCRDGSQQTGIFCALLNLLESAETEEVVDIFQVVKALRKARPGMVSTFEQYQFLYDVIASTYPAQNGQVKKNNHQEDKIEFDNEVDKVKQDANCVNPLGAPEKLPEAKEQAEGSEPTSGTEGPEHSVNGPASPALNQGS

[4] = DRUGMATRIX: Atrial Natriuretic Factor (ANF) radioligand binding (ligand: [125I] ANF (rat)); format: cell membranes, Cavia porcellus, Dunkin-Hartley, Adrenal gland, Membrane; conditions: Not Active = under 50% inhibition at 10 µM
[5] = molecular target: Kappa-type opioid receptor (Homo sapiens, UniProt P41145); assay: DRUGMATRIX: Opiate kappa (OP2, KOP) radioligand binding (ligand: [3H] Diprenorphine); format: cell membranes, HEK293, Membrane; conditions: hek293; Not Active = under 50% inhibition at 10 µM
Sequence of Kappa-type opioid receptor (P41145 whole entry): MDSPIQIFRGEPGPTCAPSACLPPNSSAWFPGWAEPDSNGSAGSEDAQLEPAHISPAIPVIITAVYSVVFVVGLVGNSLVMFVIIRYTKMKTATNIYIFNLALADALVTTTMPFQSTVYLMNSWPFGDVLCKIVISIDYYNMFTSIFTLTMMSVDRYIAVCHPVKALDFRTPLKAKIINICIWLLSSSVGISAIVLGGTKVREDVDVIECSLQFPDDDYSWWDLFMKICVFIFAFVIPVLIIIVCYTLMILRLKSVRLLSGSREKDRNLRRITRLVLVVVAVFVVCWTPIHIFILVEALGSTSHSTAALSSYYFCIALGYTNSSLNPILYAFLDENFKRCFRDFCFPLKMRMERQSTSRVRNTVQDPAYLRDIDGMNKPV

[6] = molecular target: T3, B2 bradykinin receptor (Homo sapiens, UniProt P30411); format: cell membranes, Membrane; conditions: chem-1; also: in other assays of this panel Not Active means under 50% inhibition at 10 µM
T3 sequence (P30411 whole entry): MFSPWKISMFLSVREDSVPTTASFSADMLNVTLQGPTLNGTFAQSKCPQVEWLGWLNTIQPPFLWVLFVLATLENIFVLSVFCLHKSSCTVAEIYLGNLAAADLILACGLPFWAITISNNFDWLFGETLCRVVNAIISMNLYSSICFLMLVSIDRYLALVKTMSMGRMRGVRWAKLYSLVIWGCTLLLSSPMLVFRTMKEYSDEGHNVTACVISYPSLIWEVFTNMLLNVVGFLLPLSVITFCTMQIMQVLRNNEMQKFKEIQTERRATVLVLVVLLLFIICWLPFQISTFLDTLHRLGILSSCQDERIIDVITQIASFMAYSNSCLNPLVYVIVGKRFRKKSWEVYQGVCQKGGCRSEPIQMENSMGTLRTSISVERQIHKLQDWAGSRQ

[7] = molecular target: T4, Cathepsin G (Homo sapiens, UniProt P08311); format: tissue-based; conditions: neutrophil;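 also: inhibition of Cathepsin G enzyme activity, tested on an AMC-conjugated peptide substrate; in other assays of this panel Not Active means under 50% inhibition at 10 µM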
T4 sequence (P08311 whole entry): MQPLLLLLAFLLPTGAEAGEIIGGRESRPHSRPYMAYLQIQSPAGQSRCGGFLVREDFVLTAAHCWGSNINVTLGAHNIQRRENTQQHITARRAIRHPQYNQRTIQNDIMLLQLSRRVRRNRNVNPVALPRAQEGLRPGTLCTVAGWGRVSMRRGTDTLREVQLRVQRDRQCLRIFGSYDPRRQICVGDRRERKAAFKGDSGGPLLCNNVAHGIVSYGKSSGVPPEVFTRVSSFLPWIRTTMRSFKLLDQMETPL

NC12CC3CC(CC(C3)C1)C2 [AMANTADINE]
Not Active: IC50 [1] | IC50 [2] | Ki [2] | IC50 [3] | IC50 [4] | Ki [4] | IC50 [5] | IC50 [6] | IC50 [7]

CC(C)c1c(C(=O)Nc2ccccc2)c(-c2ccccc2)c(-c2ccc(F)cc2)n1CC[C@@H](O)C[C@@H](O)CC(=O)O [ATORVASTATIN]
Not Active: IC50 [1] | IC50 [2] | Ki [2] | IC50 [3] | IC50 [4] | Ki [4] | IC50 [5] | IC50 [6] | IC50 [7]

CN(C)CCC=C1c2ccccc2CCc2ccccc21 [AMITRIPTYLINE]
Not Active: IC50 [1] | IC50 [2] | Ki [2] | IC50 [3] | IC50 [4] | Ki [4] | IC50 [5] | IC50 [6] | IC50 [7]

N=C(N)c1ccc(OCCCCCOc2ccc(C(=N)N)cc2)cc1 [PENTAMIDINE]
Not Active: IC50 [1] | IC50 [2] | Ki [2] | IC50 [3] | IC50 [4] | Ki [4] | IC50 [5] | IC50 [6] | IC50 [7]

CCOc1nc2cccc(C(=O)O)c2n1Cc1ccc(-c2ccccc2-c2nnn[nH]2)cc1
Not Active: IC50 [1] | IC50 [2] | Ki [2] | IC50 [3] | IC50 [4] | Ki [4] | IC50 [5] | IC50 [6] | IC50 [7]

COc1cccc2c1C(=O)c1c(O)c3c(c(O)c1C2=O)C[C@@](O)(C(C)=O)C[C@@H]3O[C@H]1C[C@H](N)[C@H](O)[C@H](C)O1 [DAUNORUBICIN]
Not Active: IC50 [1] | IC50 [2] | Ki [2] | IC50 [3] | IC50 [4] | Ki [4] | IC50 [5] | IC50 [6] | IC50 [7]

CC(O)(P(=O)(O)O)P(=O)(O)O [ETIDRONIC ACID]
Not Active: IC50 [1] | IC50 [2] | Ki [2] | IC50 [3] | IC50 [4] | Ki [4] | IC50 [5] | IC50 [6] | IC50 [7]

CC(=O)Oc1ccccc1C(=O)O [ASPIRIN]
Not Active: IC50 [1] | IC50 [2] | Ki [2] | IC50 [3] | IC50 [4] | Ki [4] | IC50 [5] | IC50 [6] | IC50 [7]

O=c1[nH]c(=O)n([C@H]2C[C@H](O)[C@@H](CO)O2)cc1F [FLOXURIDINE]
Not Active: IC50 [1] | IC50 [2] | Ki [2] | IC50 [3] | IC50 [4] | Ki [4] | IC50 [5] | IC50 [6] | IC50 [7]

O=C(O)CC(O)(CC(=O)O)C(=O)O [CITRIC ACID]
Not Active: IC50 [1] | IC50 [2] | Ki [2] | IC50 [3] | IC50 [4] | Ki [4] | IC50 [5] | IC50 [6] | IC50 [7]

CCCCC1=NC2(CCCC2)C(=O)N1Cc1ccc(-c2ccccc2-c2nnn[nH]2)cc1 [IRBESARTAN]
Not Active: IC50 [1] | IC50 [2] | Ki [2] | IC50 [3] | IC50 [4] | Ki [4] | IC50 [5] | IC50 [6] | IC50 [7]

O=c1c(-c2ccc(O)cc2)coc2cc(O)cc(O)c12 [GENISTEIN]
Not Active: IC50 [1] | IC50 [2] | Ki [2] | IC50 [3] | IC50 [4] | Ki [4] | IC50 [5] | IC50 [6] | IC50 [7]

CN(C)C(=N)NC(=N)N [METFORMIN]
Not Active: IC50 [1] | IC50 [2] | Ki [2] | IC50 [3] | IC50 [4] | Ki [4] | IC50 [5] | IC50 [6] | IC50 [7]

C[C@H]1O[C@H](O[C@H]2[C@H](O)[C@@H](O)[C@@H](O[C@H]3[C@H](O)[C@@H](O)C(O)O[C@@H]3CO)O[C@@H]2CO)[C@H](O)[C@@H](O)[C@@H]1N[C@H]1C=C(CO)[C@@H](O)[C@H](O)[C@H]1O (stereo partly drawn) [ACARBOSE]
Not Active: IC50 [1] | IC50 [2] | Ki [2] | IC50 [3] | IC50 [4] | Ki [4] | IC50 [5] | IC50 [6] | IC50 [7]

COc1ccccc1N
Not Active: IC50 [1] | IC50 [2] | Ki [2] | IC50 [3] | IC50 [4] | Ki [4] | IC50 [5] | IC50 [6] | IC50 [7]

CC(O)COC[C@H]1O[C@@H]2O[C@H]3[C@H](O)[C@@H](O)[C@@H](O[C@H]4[C@H](O)[C@@H](O)[C@@H](O[C@H]5[C@H](O)[C@@H](O)[C@@H](O[C@H]6[C@H](O)[C@@H](O)[C@@H](O[C@H]7[C@H](O)[C@@H](O)[C@@H](O[C@H]8[C@H](O)[C@@H](O)[C@@H](O[C@H]1[C@H](O)[C@H]2O)O[C@@H]8COCC(C)O)O[C@@H]7COCC(C)O)O[C@@H]6COCC(C)O)O[C@@H]5COCC(C)O)O[C@@H]4COCC(C)O)O[C@@H]3COCC(C)O (stereo partly drawn) [2-HYDROXYPROPYL-BETA-CYCLODEXTRIN]
Not Active: IC50 [1] | IC50 [2] | Ki [2] | IC50 [3] | IC50 [4] | Ki [4] | IC50 [5] | IC50 [6] | IC50 [7]

N[C@@H](Cn1ccc(=O)c(O)c1)C(=O)O [L-MIMOSINE]
Not Active: IC50 [1] | IC50 [2] | Ki [2] | IC50 [3] | IC50 [4] | Ki [4] | IC50 [5] | IC50 [6] | IC50 [7]
